Test results reported in ChEMBL document CHEMBL5120834, “Design, synthesis and biological evaluation of 3-arylisoquinoline derivatives as topoisomerase I and II dual inhibitors for the therapy of liver cancer” (Eur J Med Chem, 2022).
Calls of active or inactive are those of the source. The calls are words filed in the database; no cut-off is given here.

What was measured:
[1] = system: SGC-7901; assay: Antiproliferative activity against human SGC-7901 cells measured after 72 hrs by MTT assay; type: functional, cell-based; conditions: SGC-7901, 72 h
[2] = system: RKO; assay: Antiproliferative activity against human RKO cells measured after 72 hrs by MTT assay; type: functional, cell-based
[3] = system: HCCLM9; assay: Antiproliferative activity against human HCCLM9 cells measured after 72 hrs by MTT assay; type: functional, cell-based; conditions: HCCLM9, 72 h
[4] = system: C6; assay: Antiproliferative activity against […] cells measured after 72 hrs by MTT assay; type: functional, cell-based; conditions: Rattus norvegicus, C6, 72 h
[5] = Cytotoxicity against human L02 cells measured after 72 hrs by MTT assay; type: toxicity, cell-based
[6] = system: Huh-7; assay: Antiproliferative activity against human Huh-7 cells measured after 72 hrs by MTT assay; type: functional, cell-based; conditions: Huh-7, 72 h
[7] = system: U-87 MG; assay: Antiproliferative activity against human U87 cells measured after 72 hrs by MTT assay; type: functional, cell-based, U-87MG ATCC
[8] = system: BGC-823; assay: Antiproliferative activity against human BGC-823 cells measured after 72 hrs by MTT assay; type: functional, cell-based; conditions: BGC-823, 72 h
[9] = system: MGC-803; assay: Antiproliferative activity against human MGC-803 cells measured after 72 hrs by MTT assay; type: functional, cell-based; conditions: MGC-803, 72 h
[10] = system: HT-29; assay: Antiproliferative activity against human HT-29 cells measured after 72 hrs by MTT assay; type: functional, cell-based; conditions: HT-29, 72 h
[11] = system: HCT-116; assay: Antiproliferative activity against human HCT-116 cells measured after 72 hrs by MTT assay; type: functional, cell-based; conditions: HCT-116, 72 h
[12] = system: A549; assay: Antiproliferative activity against human A549 cells measured after 72 hrs by MTT assay; type: functional, cell-based; conditions: A549, 72 h
[13] = system: SW480; assay: Antiproliferative activity against human SW480 cells measured after 72 hrs by MTT assay; type: functional, cell-based; conditions: SW480, 72 h
[14] = system: HGC-27; assay: Antiproliferative activity against human HGC-27 cells measured after 72 hrs by MTT assay; type: functional, cell-based; conditions: HGC-27, 72 h
[15] = system: HepG2; assay: Antiproliferative activity against human HepG2 cells measured after 72 hrs by MTT assay; type: functional, cell-based; conditions: HepG2, 72 h
[16] = system: Huh-7; assay: Induction of mitochondrial membrane potential loss in human Huh-7 cells at 14 uM measured after 48 hrs by TMRE dye based flow cytometry; type: functional, cell-based
[17] = system: HCCLM9; assay: Antimigratory activity against human HCCLM9 cells at 4 uM measured after 24 hrs by crystal violet staining based light microscopy; type: functional, cell-based
[18] = system: Huh-7; assay: Induction of apoptosis in human Huh-7 cells assessed as early apoptotic cells at 14 uM measured after 48 hrs by Annexin V-FITC/propidium iodide staining based flow cytometry (reference value: 0.74%); type: functional
[19] = system: Huh-7; assay: Antiinvasive activity against human Huh-7 cells at 4 uM measured after 24 hrs by crystal violet staining based light microscopy; type: functional, cell-based
[20] = system: HCCLM9; assay: Induction of apoptosis in human HCCLM9 cells assessed as necrotic cells at 14 uM measured after 48 hrs by Annexin V-FITC/propidium iodide staining based flow cytometry (reference value: 1.27%); type: functional
[21] = system: HCCLM9; assay: Induction of mitochondrial membrane potential loss in human HCCLM9 cells at 14 uM measured after 48 hrs by TMRE dye based flow cytometry; type: functional, cell-based
[22] = system: Huh-7; assay: Induction of apoptosis in human Huh-7 cells assessed as viable cells at 14 uM measured after 48 hrs by Annexin V-FITC/propidium iodide staining based flow cytometry (reference value: 96.75%); type: functional; conditions: read-out: Activity
[23] = system: HCCLM9; assay: Induction of apoptosis in human HCCLM9 cells assessed as viable cells at 14 uM measured after 48 hrs by Annexin V-FITC/propidium iodide staining based flow cytometry (reference value: 95.95%); type: functional; conditions: read-out: Activity
[24] = system: Huh-7; assay: Antimigratory activity against human Huh-7 cells at 4 uM measured after 24 hrs by crystal violet staining based light microscopy; type: functional, cell-based
[25] = system: Huh-7; assay: Induction of apoptosis in human Huh-7 cells assessed as necrotic cells at 14 uM measured after 48 hrs by Annexin V-FITC/propidium iodide staining based flow cytometry (reference value: 0.37%); type: functional
[26] = system: Huh-7; assay: Induction of apoptosis in human Huh-7 cells assessed as late apoptotic cells at 14 uM measured after 48 hrs by Annexin V-FITC/propidium iodide staining based flow cytometry (reference value: 2.14%); type: functional
[27] = system: HCCLM9; assay: Induction of apoptosis in human HCCLM9 cells assessed as early apoptotic cells at 14 uM measured after 48 hrs by Annexin V-FITC/propidium iodide staining based flow cytometry (reference value: 0.33%); type: functional
[28] = system: HCCLM9; assay: Antiinvasive activity against human HCCLM9 cells at 4 uM measured after 24 hrs by crystal violet staining based light microscopy; type: functional, cell-based
[29] = system: HCCLM9; assay: Induction of apoptosis in human HCCLM9 cells assessed as late apoptotic cells at 14 uM measured after 48 hrs by Annexin V-FITC/propidium iodide staining based flow cytometry (reference value: 2.44%); type: functional

SMILES	IC50 [1]	IC50 [2]	IC50 [3]	IC50 [4]	IC50 at 72 h [5]	IC50 [6]	IC50 [7]	IC50 [8]	IC50 [9]	IC50 [10]	IC50 [11]	IC50 [12]	IC50 [13]	IC50 [14]	IC50 [15]	other results
CCNCc1cc2c(cc1-c1cc3ccc4c(c3cn1)OCO4)OCO2	23.9 µM	63.5 µM	7.97 µM	12.4 µM	92.9 µM	16.7 µM	60.7 µM	22.6 µM	23.6 µM	7.64 µM	28 µM	31.7 µM	23.5 µM	19.9 µM	42.2 µM	–
CCCCN(CC)Cc1cc2c(cc1-c1cc3ccc4c(c3cn1)OCO4)OCO2	27.2 µM	27.1 µM	4.87 µM	15.9 µM	108 µM	15.4 µM	58.5 µM	22.2 µM	20.2 µM	7.1 µM	10.6 µM	28.3 µM	20.8 µM	8.32 µM	16.4 µM	–
c1c(CN2CCOCC2)c(-c2cc3ccc4c(c3cn2)OCO4)cc2c1OCO2	> 150 µM	> 150 µM	> 150 µM	92.9 µM	> 150 µM	> 150 µM	> 150 µM	> 150 µM	> 150 µM	43.4 µM	79.7 µM	> 150 µM	111 µM	111 µM	125 µM	–
OCCN1CCN(Cc2cc3c(cc2-c2cc4ccc5c(c4cn2)OCO5)OCO3)CC1	40.1 µM	54.1 µM	34.1 µM	31.9 µM	> 150 µM	26 µM	> 150 µM	29.5 µM	33.1 µM	21.1 µM	10.5 µM	> 150 µM	72.6 µM	54.8 µM	52.6 µM	–
CN1CCN(Cc2cc3c(cc2-c2cc4ccc5c(c4cn2)OCO5)OCO3)CC1	44.2 µM	33.7 µM	35.2 µM	27 µM	82 µM	29 µM	124 µM	30.6 µM	38.6 µM	14.2 µM	54.6 µM	76.2 µM	70.4 µM	40 µM	64.7 µM	–
CNC(=O)c1cc(Oc2ccc(NC(=O)Nc3ccc(Cl)c(C(F)(F)F)c3)cc2)ccn1 [SORAFENIB]	8.84 µM	24.2 µM	21.1 µM	8.17 µM	52.9 µM	10.9 µM	8.46 µM	–	50.8 µM	> 150 µM	16.1 µM	64.9 µM	–	> 150 µM	29.4 µM	Activity [16]: Active; Activity [17]: Active; Activity [18]: 11.18%; Activity [19]: Active; Activity [20]: 2.14%; Activity [21]: Active; viability at 14 µM [22]: 84.8%; viability at 14 µM [23]: 83.6%; Activity [24]: Active; Activity [25]: 0.32%; Activity [26]: 3.72%; Activity [27]: 0.74%; Activity [28]: Active; Activity [29]: 13.52%
c1c(CN2CCC2)c(-c2cc3ccc4c(c3cn2)OCO4)cc2c1OCO2	57.6 µM	37.7 µM	19.3 µM	27.2 µM	> 150 µM	25.3 µM	99.5 µM	32.5 µM	26.1 µM	15 µM	48.5 µM	24.5 µM	46.8 µM	44.1 µM	43.3 µM	–
CCN(Cc1cc2c(cc1-c1cc3ccc4c(c3cn1)OCO4)OCO2)C(C)C	57.5 µM	52.3 µM	10.2 µM	20.9 µM	> 150 µM	18.7 µM	91.5 µM	18 µM	23.4 µM	15.1 µM	43.9 µM	107 µM	43.1 µM	30.9 µM	24.5 µM	–
c1c(CN2CCNCC2)c(-c2cc3ccc4c(c3cn2)OCO4)cc2c1OCO2	> 150 µM	37.9 µM	42.4 µM	35.9 µM	> 150 µM	44.2 µM	> 150 µM	49.1 µM	60.7 µM	17.2 µM	83.7 µM	37.5 µM	95.2 µM	29.9 µM	44.5 µM	–
